Laboratory results as given in patent publication US8383581B2, “Short-chain peptides as parathyroid hormone (PTH) receptor agonist” (Cadila Healthcare Limited, priority 2009, dated 2013).
Where a SMILES comes first, the peptide text is derived from it. [ ]: non-standard residue; d: D form. ξ: configuration not given here. ξαMeBip(2'-Et,4'-OMe) = CCc1cc(OC)ccc1-c1ccc(CC(C)(N)C(=O)O)cc1; ξBip(2'-Et-4'-OMe) = CCc1cc(OC)ccc1-c1ccc(CC(N)C(=O)O)cc1; ξαMePhe(2,6-F2) = CC(N)(Cc1c(F)cccc1F)C(=O)O; ξαMe(hhPhe) = CC(N)(CCCc1ccccc1)C(=O)O; ξαMePhe(2-F) = CC(N)(Cc1ccccc1F)C(=O)O; hhPhe = N[C@@H](CCCc1ccccc1)C(=O)O; hArg = N=C(N)NCCCC[C@H](N)C(=O)O; hCit = NC(=O)NCCCC[C@H](N)C(=O)O; Cit = NC(=O)NCCC[C@H](N)C(=O)O; ξαMeNle = CCCCC(C)(N)C(=O)O; ξαMeV = CC(C)C(C)(N)C(=O)O; ξαMeM = CSCCC(C)(N)C(=O)O; Nle = CCCC[C@H](N)C(=O)O; Ac5c = NC1(C(=O)O)CCCC1; Aib = CC(C)(N)C(=O)O

Legend:
Type in all cases: in vitro ADME
[1] = Stability of peptides in human plasma; details: human, plasma; for metabolised at 24 h, 2 μM: pH 7.8
Outline: (§1)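 Peptides at 2 μM final incubated 0–24 h at 37 °C (50 mM triethanolamine-HCl, pH 7.8) in each matrix, matrix level set to degrade ~50% PTH(1-34) in 1 h; TFA-quenched, C18 HPLC at 206 nm with ESI-MS peak identification; percent degradation from peak areas at each time point.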

[2] = Stability of peptides in simulated gastric fluid (pH 1.5; HCl, NaCl and Pepsin); details: pH 1.5; for % degradation of peptides in 24 h when incubated with simulated gastric fluid: 2 μM
[3] = Stability of peptides in simulated intestinal fluid (pH 7.5); details: pH 7.5; for % degradation of peptides in 24 h when incubated with simulated intestinal fluid: 2 μM
Outline: as §1

[4] = Stability of peptides in human liver microsomes; details: human, microsomes; for % degradation of peptides in 24 h when incubated with liver microsomes: 2 μM, pH 7.8
Outline: as §1

half-life [1] [h]	metabolised at 24 h, 2 μM [1] [%]	% degradation of peptides in 24 h when incubated with simulated gastric fluid [2] [%]	half-life (t1/2) in simulated gastric fluid ([2]; simulated gi fluid)	half-life (t1/2) in simulated intestinal fluid ([3]; simulated gi fluid)	% degradation of peptides in 24 h when incubated with simulated intestinal fluid [3] [%]	half-life [4] [h]	% degradation of peptides in 24 h when incubated with liver microsomes [4] [%]	half-life ([2]; simulated gi fluid) [h]	half-life ([3]; simulated gi fluid) [h]	half-life (t1/2) in liver microsomes [4]	half-life (t1/2) in human plasma [1]	Compound
8	77	14	(8) h	(6) h	45	1	81	–	–	–	–	CCCC[C@H](NC(=O)C(C)(Cc1c(F)cccc1F)NC(=O)[C@H](CCC(N)=O)NC(=O)[C@@H](NC(=O)[C@H](CCC(=O)O)NC(=O)C(C)(C)NC(=O)[C@@H](NC(=O)C(C)(C)N)C(C)C)[C@@H](C)CC)C(=O)N[C@@H](Cc1c[nH]cn1)C(=O)N[C@@H](CCC(N)=O)C(=O)N[C@@H](CCCCNC(N)=O)C(=O)N[C@@H](C)C(=O)N[C@@H](CCCNC(N)=O)C(=O)NC(Cc1ccc(-c2ccc(OC)cc2CC)cc1)C(=O)N[C@@H](CCCc1ccccc1)C(N)=O (some centres unmarked) [Seq. ID. 860] (H-[Aib]V[Aib]EIQ[ξαMePhe(2,6-F2)][Nle]HQ[hCit]A[Cit][ξBip(2'-Et-4'-OMe)][hhPhe]-NH2)
> 24	0	00	–	–	00	–	31	> 24	> 24	(5) h	–	CCCC[C@H](NC(=O)C(C)(Cc1c(F)cccc1F)NC(=O)[C@H](CCC(N)=O)NC(=O)[C@@H](NC(=O)[C@H](CCC(=O)O)NC(=O)C(C)(C)NC(=O)[C@@H](NC(=O)C(C)(C)N)C(C)C)[C@@H](C)CC)C(=O)N[C@@H](Cc1c[nH]cn1)C(=O)N[C@@H](CCC(N)=O)C(=O)NC(C)(Cc1c(F)cccc1F)C(=O)N[C@@H](C)C(=O)NC(C)(Cc1c(F)cccc1F)C(=O)NC(Cc1ccc(-c2ccc(OC)cc2CC)cc1)C(=O)N[C@@H](CCCc1ccccc1)C(N)=O (some centres unmarked) [Seq. ID. 880] (H-[Aib]V[Aib]EIQ[ξαMePhe(2,6-F2)][Nle]HQ[ξαMePhe(2,6-F2)]A[ξαMePhe(2,6-F2)][ξBip(2'-Et-4'-OMe)][hhPhe]-NH2)
> 24	0	00	–	–	00	–	32	> 24	> 24	(5) h	–	CCc1cc(OC)ccc1-c1ccc(CC(C)(NC(=O)[C@H](CCCCN)NC(=O)[C@H](C)NC(=O)[C@H](CCCCNC(=N)N)NC(=O)[C@H](CCC(N)=O)NC(=O)[C@H](Cc2c[nH]cn2)NC(=O)[C@H](CCSC)NC(=O)[C@H](CC(C)C)NC(=O)[C@H](CCC(N)=O)NC(=O)[C@@H](NC(=O)[C@H](CCC(=O)O)NC(=O)C(C)(C)NC(=O)[C@@H](NC(=O)C(C)(C)N)C(C)C)[C@@H](C)CC)C(=O)N[C@@H](CCCc2ccccc2)C(N)=O)cc1 (some centres unmarked) [Seq. ID. 890] (H-[Aib]V[Aib]EIQLMHQ[hArg]AK[ξαMeBip(2'-Et,4'-OMe)][hhPhe]-NH2)
> 24	0	00	–	–	00	–	33	> 24	> 24	(5) h	–	CCCC[C@H](NC(=O)[C@H](CC(C)C)NC(=O)[C@H](CCC(N)=O)NC(=O)[C@@H](NC(=O)[C@H](CCC(=O)O)NC(=O)C(C)(C)NC(=O)[C@@H](NC(=O)C1(NC(=O)C(C)(N)C(C)C)CCCC1)C(C)C)[C@@H](C)CC)C(=O)N[C@@H](Cc1c[nH]cn1)C(=O)N[C@@H](CCC(N)=O)C(=O)N[C@@H](CCCCNC(=N)N)C(=O)N[C@@H](C)C(=O)N[C@@H](CCCCN)C(=O)NC(Cc1ccc(-c2ccc(OC)cc2CC)cc1)C(=O)NC(C)(CCCc1ccccc1)C(N)=O (some centres unmarked) [Seq. ID. 895] (H-[ξαMeV][Ac5c]V[Aib]EIQL[Nle]HQ[hArg]AK[ξBip(2'-Et-4'-OMe)][ξαMe(hhPhe)]-NH2)
> 24	0	00	–	–	00	–	26	> 24	> 24	(5) h	–	CCc1cc(OC)ccc1-c1ccc(CC(C)(NC(=O)[C@H](CCCCNC(=N)N)NC(=O)[C@H](C)NC(=O)[C@H](CCCCNC(=N)N)NC(=O)[C@H](CCC(N)=O)NC(=O)[C@H](Cc2c[nH]cn2)NC(=O)[C@H](CCSC)NC(=O)[C@H](CC(C)C)NC(=O)[C@H](CCC(N)=O)NC(=O)[C@@H](NC(=O)[C@H](CCC(=O)O)NC(=O)C(C)(C)NC(=O)[C@@H](NC(=O)C(C)(C)N)C(C)C)[C@@H](C)CC)C(=O)N[C@@H](CCCc2ccccc2)C(N)=O)cc1 (some centres unmarked) [Seq. ID. 898] (H-[Aib]V[Aib]EIQLMHQ[hArg]A[hArg][ξαMeBip(2'-Et,4'-OMe)][hhPhe]-NH2)
–	78	100	–	–	100	0.5	100	0.5	0.5	–	(9) h	CCc1cc(OC)ccc1-c1ccc(CC(NC(=O)[C@H](CCCCNC(=N)N)NC(=O)[C@H](C)NC(=O)[C@H](CCCCNC(=N)N)NC(=O)[C@H](CCC(N)=O)NC(=O)[C@H](Cc2c[nH]cn2)NC(=O)[C@H](CCSC)NC(=O)[C@H](CC(C)C)NC(=O)[C@H](CCC(N)=O)NC(=O)[C@@H](NC(=O)[C@H](CCC(=O)O)NC(=O)C(C)(C)NC(=O)[C@@H](NC(=O)C2(NC(=O)C(C)(N)C(C)C)CCCC2)C(C)C)[C@@H](C)CC)C(=O)NC(C)(CCCc2ccccc2)C(N)=O)cc1 (some centres unmarked) [Seq. ID. 906] (H-[ξαMeV][Ac5c]V[Aib]EIQLMHQ[hArg]A[hArg][ξBip(2'-Et-4'-OMe)][ξαMe(hhPhe)]-NH2)
–	77	100	–	–	100	0.5	100	0.5	0.5	–	(9) h	CCc1cc(OC)ccc1-c1ccc(CC(C)(NC(=O)[C@H](CCCCNC(=N)N)NC(=O)[C@H](C)NC(=O)[C@H](CCCCNC(=N)N)NC(=O)[C@H](CCC(N)=O)NC(=O)[C@H](Cc2c[nH]cn2)NC(=O)C(C)(CCSC)NC(=O)[C@H](CC(C)C)NC(=O)[C@H](CCC(N)=O)NC(=O)[C@@H](NC(=O)[C@H](CCC(=O)O)NC(=O)C(C)(C)NC(=O)[C@@H](NC(=O)C(C)(C)N)C(C)C)[C@@H](C)CC)C(=O)N[C@@H](CCCc2ccccc2)C(N)=O)cc1 (some centres unmarked) [Seq. ID. 910] (H-[Aib]V[Aib]EIQL[ξαMeM]HQ[hArg]A[hArg][ξαMeBip(2'-Et,4'-OMe)][hhPhe]-NH2)
–	80	100	–	–	100	0.5	100	0.5	0.5	–	(9) h	CCCCC(C)(NC(=O)[C@H](CC(C)C)NC(=O)[C@H](CCC(N)=O)NC(=O)[C@@H](NC(=O)[C@H](CCC(=O)O)NC(=O)C(C)(C)NC(=O)[C@@H](NC(=O)C(C)(C)NC(=O)[C@@H](N)C(C)C)C(C)C)[C@@H](C)CC)C(=O)N[C@@H](Cc1c[nH]cn1)C(=O)N[C@@H](CCC(N)=O)C(=O)N[C@@H](CCCCNC(=N)N)C(=O)N[C@@H](C)C(=O)N[C@@H](CCCCNC(=N)N)C(=O)NC(C)(Cc1ccc(-c2ccc(OC)cc2CC)cc1)C(=O)N[C@@H](CCCc1ccccc1)C(N)=O (some centres unmarked) [Seq. ID. 915] (H-V[Aib]V[Aib]EIQL[ξαMeNle]HQ[hArg]A[hArg][ξαMeBip(2'-Et,4'-OMe)][hhPhe]-NH2)
> 24	0	00	–	–	00	–	35	> 24	> 24	(5) h	–	CCc1cc(OC)ccc1-c1ccc(CC(NC(=O)[C@H](CCCCNC(=N)N)NC(=O)[C@H](C)NC(=O)[C@H](CCCCNC(=N)N)NC(=O)[C@H](CCC(N)=O)NC(=O)[C@H](Cc2c[nH]cn2)NC(=O)C(C)(CCSC)NC(=O)[C@H](CC(C)C)NC(=O)[C@H](CCC(N)=O)NC(=O)[C@@H](NC(=O)[C@H](CCC(=O)O)NC(=O)C(C)(C)NC(=O)[C@@H](NC(=O)C(C)(C)NC(=O)[C@@H](N)C(C)C)C(C)C)[C@@H](C)CC)C(=O)NC(C)(CCCc2ccccc2)C(N)=O)cc1 (some centres unmarked) [Seq. ID. 920] (H-V[Aib]V[Aib]EIQL[ξαMeM]HQ[hArg]A[hArg][ξBip(2'-Et-4'-OMe)][ξαMe(hhPhe)]-NH2)
> 24	0	00	–	–	00	–	32	> 24	> 24	(5) h	–	CC[C@H](C)[C@H](NC(=O)[C@H](CCC(=O)O)NC(=O)C(C)(C)NC(=O)[C@@H](NC(=O)C(C)(C)N)C(C)C)C(=O)N[C@@H](CCC(N)=O)C(=O)N[C@@H](CC(C)C)C(=O)NC(C)(CCSC)C(=O)N[C@@H](Cc1c[nH]cn1)C(=O)N[C@@H](CCC(N)=O)C(=O)N[C@@H](CCCCNC(=N)N)C(=O)N[C@@H](C)C(=O)N[C@@H](CCCCNC(=N)N)C(=O)NC(C)(Cc1ccccc1F)C(=O)N[C@@H](CCCc1ccccc1)C(N)=O (some centres unmarked) [Seq. ID. 930] (H-[Aib]V[Aib]EIQL[ξαMeM]HQ[hArg]A[hArg][ξαMePhe(2-F)][hhPhe]-NH2)
